Test results from US20260053935A1, “METHODS AND COMPOSITIONS FOR TREATING CANCER WITH CANCER-BINDING ADJUVANTS” (THE UNIVERSITY OF CHICAGO, priority 2022, published 2026).

Assays:
RAW 264.7 macrophages = test: Cytotoxicity to RAW 264.7 macrophages (Zombie Aqua viability dye); type: cell-based; conditions: 24 hours after treatment; vs media alone
[1] = tested on: pro-inflammatory cytokines; test: Serum cytokine analysis in MC38 tumor-bearing mice; type: in vivo; conditions: i.t. on a TLR7 equimolar basis; 6 hours after injection; vs PBS or vehicle control
Protocol: As a comparison, other mice were injected with TLR7/8 agonist telratolimod (3M-052, MedChemExpress, cat. no. HY-109104) in 10% DMSO, 40% PEG300 (Sigma Aldrich, cat. no. 8.07484), and 5% Tween-80 in PBS (Sigma Aldrich, cat. no. P8074) (with additional vehicle control mice). Six hours after injection, plasma was collected via submandibular bleed and analyzed for pro-inflammatory cytokines using LEGENDplex Mouse Inflammation Panel Assay (BioLegend, cat. no. 740446).

[2] = In vivo polymer biodistribution (tissue homogenate fluorescence); conditions: cytarabine one day before polymer i.v.
Text: To achieve this, they inoculated normal B6 mice with C1498. After one day, one group of mice received a dose of cytarabine. […] Eight hours after this injection, mice were sacrificed, and tissues were harvested for homogenization and subsequent fluorescence quantification using a microplate reader. Fluorescence values were normalized per mg of tissue.

C1498 cells = test: In vitro cancer cell binding of dye-labeled polymer to AML cells
Text: Flow cytometric analysis of dye labeled PDS-containing polymers binding to C1498 cells in a (A) polymer dose-dependent manner.
They also investigated the effect of cytarabine pre-treatment on polymer binding, both in a dose and time dependent manner.

CCOCc1nc2c(N)nc3ccccc3c2n1CC(C)(C)O [R848]
live cells as a percent of total cells (RAW 264.7 macrophages): no significant change from the media alone control wells

CCCCCCCCCCCCCCCCCC(=O)NCCCCOn1c(CCCC)nc2c(N)nc3ccccc3c21 [3M-052]
systemic inflammatory cytokines (IFN-γ, IL-6, MCP-1, IFN-β, IL-27) [1]: produced significant upregulation

Nc1ccn([C@@H]2O[C@H](CO)[C@@H](O)[C@@H]2O)c(=O)n1 [cytarabine]
effect of cytarabine pre-treatment on tissue biodistribution of polymer [2]: does not significantly alter the tissue biodistribution of polymer
efficiency of polymer binding to C1498 cells after cytarabine pre-treatment (duration) (C1498 cells; cytarabine given too far from polymer treatment): decreases binding efficiency of PDS-containing polymers
efficiency of polymer binding to C1498 cells after cytarabine pre-treatment (dose) (C1498 cells; cytarabine pre-treatment for 4 hours): increased the efficiency of polymer binding in a dose-dependent manner
